Source: patent US11684675B2, “Dimeric collagen hybridizing peptides and methods of using” (University of Utah Research Foundation, priority 2015, dated 2023)
Non-standard residues stand in square brackets, D forms with d. No end group written: not given here. Hyp = O=C(O)[C@@H]1C[C@@H](O)CN1; CF = carboxyfluorescein label

How the values were obtained:
[1] = Triple helix melting point (Tm) by circular dichroism at 225 nm; format: physicochemical; settings: triple helix melting
Procedure: FIGS. 5A, 5B, 5C, and 5D show the thermal denaturation of fully assembled CHPs and subsequent cooling to initial temperature. Samples were heated at 1° C./min from their initial temperature final temperature of 90° C. Sample was then cooled at 1° C./min to the starting temperature. (A) Thermal denaturation and partial reassembly of CHP CF-6d (150 μM) monitored at 225 nm. Sample was measured from 4° C. to 90° C. (B) Thermal denaturation and partial reassembly of CHP […] (75 μM, corresponding to 150 μM strand concentration) monitored at 225 nm. Sample was measured from 4° C. to 90° C. (C) Thermal denaturation and partial reassembly of CHP CF-9 (150 μM) monitored at 225 nm. Sample was measured from 10° C. to 90° C. (D) Thermal denaturation and partial reassembly of CHP CF-9d (75 μM, corresponding to 150 μM strand concentration) monitored at 225 nm. Sample was measured from 10° C. to 90° C.
FIGS. 11A and 11B show the First Derivative of mean residue ellipticity (MRE) at 225 nm in CD. […] There is no significant change in melting point between the monomeric and dimeric forms of the same peptide.
(§1) Circular Dichroism: Circular Dichroism (CD) was measured for all peptides at 225 nm. Melting curves were taken on peptides between 10 and 80° C. at a heating rate of 0.5° C./min, with pauses at each 1° C. Refolding experiments were performed after peptide solutions were incubated at 4° C. for at least 12 hours. Concentrations were normalized to strand concentration.

[2] = system: crosslinked gelatin films; assay: Retention of CF-labelled CHPs in crosslinked gelatin films (bound at 4° C., washed at 25° C./r.t.); format: binding, porcine; settings: for retention / affinity in gelatin films: 20 μM, preheated 80° C., bound at 4° C., washed at r.t. with PBS, FIG. 6A; for retention in crosslinked gelatin films: Example 3 retention studies
Procedure: (§2) (A) Fraction of peptide remaining in a crosslinked gelatin film after 17 h at 25° C. (10 total washes). Values are normalized to fluorescence remaining in wells after 6 washes at 4° C. (>95% removal of CHPs 9r, 6r, and 5r). All washes performed in 1×PBS. (B) CHPs (15 μM) premixed into 10% porcine gelatin and preheated to 80° C. (10 min) before being added to a 96 well plate. Excess CHP-gelatin mixture was removed, then the premix was incubated at 4° C. for 2 hours. Wells were washed at 4° C., 5 times (>95% removal of CHPs 9r, 6r, and 5r). Wells were then washed for 2 hours (6 washes total) at 25° C. to monitor CHP remaining in the well. (C) Fluorescence of CHPs remaining in crosslinked gelatin after incubation at 37° C. overnight without preheating, followed by washing with 1×PBS at 37° C. (20 h). (D) Fluorescence of CHPs remaining in crosslinked gelatin after incubation at 37° C. overnight (80° C. preheating, 10 min), followed by washing with 1×PBS at 37° C. (20 h).
Binding to Gelatin films. Peptide solutions (20 μM in PBS) were preheated to 80° C. for 10 minutes before being added directly to the crosslinked gelatin films. Peptides were allowed to fully equilibrate with the gel at 4° C. overnight before being exposed to repeated washes (4×30 min) at 4° to fully remove any non-specifically bound peptide. Gelatin wells were then washed at r.t. with PBS (5×1 h, lx 12 h) to measure retention within the gelatin films. […] To eliminate the possibility of these peptides merely becoming physically entrapped within the gelatin after forming triple helix or forming triple helix before binding, binding affinity was verified by producing a premix of the CHPs and Gelatin to eliminated diffusion-limited binding before washing the wells in a similar manner.
Fluorescence Binding: CHP binding to gelatin was monitored by conjugating a fluorescent Carboxyfluorescein (CF) molecule to the N-terminus of each peptide via standard SPPS. Solutions of the fluorescent peptides were heated to 80° C. for 5 min before injecting 50 μL onto a pre-prepared EDC-crosslinked thin gelatin film in a 96 well plate. Peptides incubated overnight at 4° C., then washed with repeated rounds of 4° C. 1×PBS followed by 25° C. 1×PBS.

[3] = system: crosslinked gelatin films; assay: Binding of CF-labelled CHPs to crosslinked gelatin films at 37° C. with and without preheating; set-up: species or system porcine; settings: for binding to gelatin wells at 37° C. without preheating: 20 μM, 37° C. overnight, PBS wash 20 h, FIG. 6C
Procedure: FIGS. 3A and 3B show the affinity of CHPs to gelatin films as monitored by fluorescence of conjugated CF fluorophore (492 ex, 533 em). (A) Fluorescence of CHPs bound to crosslinked gelatin after incubation at 37° C. overnight with no workup. (B) Fluorescence of CHPs remaining in crosslinked gelatin after incubation at 37° C. overnight without preheating, followed by washing with 1×PBS at 37° C. (20 h).
as §2
Dimeric CHPs were assessed for their ability to bind to collagen strands in crosslinked gelatin films. CHP solutions (20 μM in PBS) were added directly to the crosslinked gelatin films. For heated experiments, CHPs were preheated to 80° C. for 10 minutes before addition. Peptides were allowed to fully equilibrate with the gel at 37° C. overnight before being exposed to repeated washes (4×, PBS) at 37° C. to fully remove any non-specifically bound peptide and to determine binding level at body temperature. To measure retention, peptides were bound as previously described, but were subsequently washed with PBS 37° C. (5×1 h, 1×12 h) to measure retention within the gelatin films. […] Additionally, after a period of 20 hours, higher level of the dimeric CHP remained in the gelatin compared to the monomeric CHP.
A major limitation of the use of CHP in vivo, is the requirement of the triple helix to be fully disassembled before being injected. […] For this test, peptide solutions were allowed to warm to room temperature before being added (50 μL, 20 μM) to previously prepared crosslinked gelatin films. Solutions were then incubated at 37° C. overnight before removing the solution. Wells were washed at 37° C. with PBS (20 h) to determine binding. Preheated samples were prepared and incubated in the same way, but with preheating (80° C., 10 min) before being added to the crosslinked gelatin wells.

[4] = CD refolding (triple helix assembly) at 10° C. monitored at 225 nm; format: physicochemical; settings: 10° C., FIG. 12A
Procedure: Conversion was assumed to be at 100% after 96 h incubation at 4° C., and max trimer concentration was measured via CD ellipticity at 10° C. Samples were preheated to 80° C. in the sample cuvette for 10 min before being transferred directly to the sample holder held at a constant 10° C. Sample measurement began immediately. Initial time point for analysis was determined by measuring time for a blank (lx PBS) to thermally equilibrate in these conditions.
For all peptides, conversion was assumed to be at 100% after 96 h incubation at 4° C., and max trimer concentration was measured via CD ellipticity at 10° C. Samples were preheated to 80° C. in the sample cuvette for 10 min before being transferred directly to the sample holder held at a constant 10° C. Sample measurement began immediately. Initial time point for analysis was determined by measuring time for a blank (1×PBS) to thermally equilibrate in these conditions. This was set as the zero point for all peptides, as the large jump in CD due to temperature makes the initial jump irresolvable. (A) Rate of assembly of CHP 9 (60, 30, and 15 μM), over 2 h, monitored at 225 nm. (B) Rate of assembly of CHP 9d (30, 15, and 7.5 μM, corresponding to same CHP strand concentration from panel A), over 2 h, monitored at 225 nm. (C) Rate of assembly of CHP 6 (150 and 75 μM), over 2 h, monitored at 225 nm.
FIGS. 12A and 12B show CD refolding at 10° C. of CMPs monitored at 225 nm. CMPs were heated to 80° C. for 5 minutes before being placed into the CD and initial 2 min of monitored data was removed to eliminate thermal transition. Signal was normalized to that of a fully folded peptide.
as §1

[5] = system: porcine gelatin; assay: SPR gelatin capture by immobilized biotinylated CHPs; format: binding; settings: gelatin 25 μg/mL
Procedure: FIGS. 7A and 7B show SPR data for porcine gelatin capture by immobilized CHPs. […] Gelatin was applied to the sensor surface during the association phase, followed by elution with blank during dissociation phase. Association occurred for 981 s, followed by dissociation for 1800 s. Values were normalized to a 100% biotin lane, and were adjusted to the mass of peptide immobilized in each well. (A) Preheated (80° C., 10 min), quenched (0° C., 30 s) gelatin (25 μg/mL) was applied to the sensor at an ambient temperature of 37° C. (B) Preheated (80° C., 10 min), quenched (0° C., 30 s) gelatin (25 μg/mL) was applied to the sensor at an ambient temperature of 15° C.
Surface Plasmon Resonance (SPR). […] However, there were major differences observed during the association phase. At 37° C., there was a much higher amount of gelatin adsorbed to all the peptides tested on the surface when compared to 15° C. […] At 15° C., gelatin adsorbed to the surface at a much slower rate. […] However, this lower adsorption rate can be due to a reduced diffusion rate near the surface or a more condensed gelatin structure at this lower temperature.
Dimeric CHP is able to hybridize effectively with denatured collagens with faster folding kinetics than current, monomeric CHPs. Surface plasmon resonance (SPR) was used to measure the ability of the CHPs to trap denatured collagen from solution.

Tm (° C.) ([1]; Table 1) | Tm (° C.) ([1]; Table 2) | Substance | retention / affinity in gelatin films [2] | also measured
 | 68 (SEQ ID NO: 62) ° C. | [(GPO)9G3)2KG3K^Biotin [b-9d] |  | 
69 (SEQ ID NO: 57) ° C. | 69 (SEQ ID NO: 57) ° C. | CF-G3-(GPO9) [CF-9] |  | retention in crosslinked gelatin films [2]: 58%
50 (SEQ ID NO: 63) ° C. | 50 (SEQ ID NO: 63) ° C. | [(CF-G3GPO)6G3)2KG [CF-6d] | comparable affinity to that of the GPO9 monomer (CF-9) and GPO9 dimer (CF-9d) | retention in crosslinked gelatin films [2]: 66%; more peptide remaining after 20 hours of wash ([3]; 37° C., non-preheated, vs currently utilized CHP, FIG. 17): 50%; higher initial binding to the gelatin substrate ([3]; non-preheated, vs currently utilized CHP, FIG. 17): 350%
73 (SEQ ID NO: 55 °C | 73 (SEQ ID NO: 55 w/label) ° C. | [(CF-Ahx-GPO)9G3)2KG [CF-9d] |  | 
69 (SEQ ID NO: 55) ° C. | 69 (SEQ ID NO: 55) ° C. | [(GPO)9G3)2KG [9d] |  | increase in refolding rate compared to monomeric GPO9 [4]: two-fold; binding to gelatin wells at 37° C. without preheating [3]: bind more significantly than the GPO9 monomer without preheating; ability to bind gelatin ([5]; 15° C.): maintained its greater ability to bind gelatin; ability to bind gelatin ([5]; 37° C.): higher ability to bind gelatin than that of an equivalent number of strands in their monomeric counterparts
 | 27 (SEQ ID NO: 67) ° C. | (GPO)5 [compound 5, reference compound] |  | binding to gelatin wells at 37° C. without preheating [3]: do not have a strong enough affinity to the gelatin to bind effectively at physiologic temperature
 | 36 (SEQ ID NO: 64) ° C. | (GPO)6-G3K^Biotin [b-6] |  | 
 | 37 (SEQ ID NO: 65) ° C. | [(GPO)6G3)2KG3K^Biotin [b-6d] |  | 
 | 68 (SEQ ID NO: 61) ° C. | (GPO)9-G3K^Biotin [b-9] |  | 

Substance | Tm (° C.) ([1]; Table 1) | Tm (° C.) ([1]; Table 2) | retention / affinity in gelatin films [2] | also measured
CF-G3-(GPO6) (GGGGPPGPPGPPGPPGPPGPP; carboxyfluorescein label; collagen hybridizing peptide; (6)..(6) Proline is hydroxyproline; (9)..(9) Proline is hydroxyproline; (12)..(12) Proline is hydroxyproline; (15)..(15) Proline is hydroxyproline; (18)..(18) Proline is hydroxyproline; (21)..(21) Proline is hydroxyproline) [CF-6] | 37 (SEQ ID NO: 60) ° C. | 37 (SEQ ID NO: 60) ° C. | almost entirely washed out of the gelatin films | 
[(GPO)5G3)2KG (GP[Hyp]GP[Hyp]GP[Hyp]GP[Hyp]GP[Hyp]GGGKGGG[Hyp]PG[Hyp]PG[Hyp]PG[Hyp]PG[Hyp]PG; not fully specified (C-terminus); also: lysine-branched dimer: K19 is branch point carrying two arms and a third (C-terminal) Gly, residues 20-37 are the second arm written in reverse order) [5d] |  | 27 (SEQ ID NO: 68) ° C. |  | 
[(CF-G3GPO)5G3)2KG ({CF}-GGGGP[Hyp]GP[Hyp]GP[Hyp]GP[Hyp]GP[Hyp]GGGKGGG[Hyp]PG[Hyp]PG[Hyp]PG[Hyp]PG[Hyp]PGGGG; not fully specified (C-terminus); also: lysine-branched dimer: K22 is the branch point, second arm (23-43) is written reversed, its N-terminus at position 43 carries CF) [CF-5d] |  | 28 (SEQ ID NO: 70) ° C. | higher affinity to the gelatin films than CF-6 | 
CF-G3-(GPO5) (GGGGPPGPPGPPGPPGPP; carboxyfluorescein label; collagen hybridizing peptide; (6)..(6) Proline is hydroxyproline; (9)..(9) Proline is hydroxyproline; (12)..(12) Proline is hydroxyproline; (15)..(15) Proline is hydroxyproline; (18)..(18) Proline is hydroxyproline) [CF-5, reference compound] |  | 28 (SEQ ID NO: 69) ° C. | almost entirely washed out of the gelatin films | 
